# Source: patent US20100152434A1, “Protein Kinase-binding Nucleosides and Associated Methods” (priority 2007, published 2010)
# Where two headings read alike, the source gives them in different places.
# Assays:
# COLO 205 = assay: cells; details: Homo sapiens, COLO 205, 48 h
# OVCAR-3 = assay: cells; details: Homo sapiens, OVCAR-3, 48 h
# CAKI-1 = assay: cells; details: Homo sapiens, CAKI-1, 48 h
# CCRF-CEM = assay: cells; details: Homo sapiens, 48 h
# MDA-MB-435 = details: MDA-MB-435
# DU-145 = assay: cells; details: Homo sapiens, DU-145, 48 h
# EKVX = assay: cells; details: Homo sapiens, 48 h
# A549/ATCC = assay: cells; details: Homo sapiens, A549, 48 h
# UACC-62 [1] = assay: cells; details: Homo sapiens, UACC-62, 48 h
# M14 = assay: cells; details: Homo sapiens, M14, 48 h
# SN12C = assay: cells; details: Homo sapiens, 48 h
# NCI-H322M = assay: cells; details: Homo sapiens, NCI-H322M, 48 h
# UO-31 [2] = assay: cells; details: Homo sapiens, UO-31, 48 h
# U251 = assay: cells; details: Homo sapiens, U-251, 48 h
# PC-3 = assay: cells; details: Homo sapiens, PC-3, 48 h
# HT29 = assay: cells; details: Homo sapiens, HT-29, 48 h
# HCC-2998 = assay: cells; details: Homo sapiens, HCC 2998, 48 h
# MALME-3M = assay: cells; details: Homo sapiens, 48 h
# UO-31 [3] = tested on: UO-31
# NCI-H226 = assay: cells; details: Homo sapiens, NCI-H226, 48 h
# TK-10 = assay: cells; details: Homo sapiens, TK-10, 48 h
# RXF 393 = assay: cells; details: Homo sapiens, RXF 393, 48 h
# UACC-62 [4] = tested on: UACC-62
# MCF7 = assay: cells; details: Homo sapiens, MCF7, 48 h
# [5] = Log10 Concentration −4.0, Molar
# [6] = Log10 Concentration −5.0, Molar
# [7] = Log10 Concentration −6.0, Molar
# [8] = Log10 Concentration −7.0, Molar
# [9] = Log10 Concentration −8.0, Molar
structure (smiles),measurement,setting,value
CCOC(=O)C[C@@H]1C(O[Si](C)(C)C(C)(C)C)[C@H](n2cnc3c(NC(=O)Nc4ccccc4)ncnc32)O[C@@H]1CNC(=O)NC (some centres unmarked) [Compound 10],GI50,COLO 205,3.84 µM
same,CC50,COLO 205; read-out: LC50,> 100 µM
same,TGI,SW-620; 48 h,2.84E−5 Molar
same,Percent Growth,SW-620; [5],−33%
same,Percent Growth,SW-620; [6],28%
same,Percent Growth,SW-620; [7],97%
same,Percent Growth,SW-620; [8],94%
same,Percent Growth,SW-620; [9],97%
same,GI50,OVCAR-3,4.59 µM
same,CC50,OVCAR-3; read-out: LC50,91.3 µM
same,GI50,CAKI-1,29.7 µM
same,CC50,CAKI-1; read-out: LC50,> 100 µM
same,GI50,CCRF-CEM,6.69 µM
same,CC50,CCRF-CEM; read-out: LC50,> 100 µM
same,TGI,MDA-MB-435; 48 h,>1.00E−4 Molar
same,Percent Growth,MDA-MB-435; [5],8%
same,Percent Growth,MDA-MB-435; [6],40%
same,Percent Growth,MDA-MB-435; [7],89%
same,Percent Growth,MDA-MB-435; [8],92%
same,Percent Growth,MDA-MB-435; [9],95%
same,GI50,DU-145,4.97 µM
same,CC50,DU-145; read-out: LC50,78.4 µM
same,GI50,EKVX,17.7 µM
same,CC50,EKVX; read-out: LC50,> 100 µM
same,GI50,A549/ATCC,4.18 µM
same,CC50,A549/ATCC; read-out: LC50,79.1 µM
same,GI50,UACC-62 [1],> 100 µM
same,CC50,UACC-62 [1]; read-out: LC50,> 100 µM
same,GI50,M14,2.51 µM
same,CC50,M14; read-out: LC50,78.6 µM
same,GI50,SN12C,9.1 µM
same,CC50,SN12C; read-out: LC50,> 100 µM
same,GI50,NCI-H322M,> 100 µM
same,CC50,NCI-H322M; read-out: LC50,> 100 µM
same,TGI,HS 578T; 48 h,5.36E−5 Molar
same,Percent Growth,HS 578T; [5],−7%
same,Percent Growth,HS 578T; [6],18%
same,Percent Growth,HS 578T; [7],90%
same,Percent Growth,HS 578T; [8],95%
same,Percent Growth,HS 578T; [9],94%
same,GI50,UO-31 [2],12.1 µM
same,CC50,UO-31 [2]; read-out: LC50,71.7 µM
same,GI50,U251,4.69 µM
same,CC50,U251; read-out: LC50,76 µM
same,GI50,PC-3,2.25 µM
same,CC50,PC-3; read-out: LC50,12.5 µM
same,GI50,HT29,4.2 µM
same,CC50,HT29; read-out: LC50,> 100 µM
same,TGI,SNB-19; 48 h,>1.00E−4 Molar
same,Percent Growth,SNB-19; [5],12%
same,Percent Growth,SNB-19; [6],82%
same,Percent Growth,SNB-19; [7],87%
same,Percent Growth,SNB-19; [8],95%
same,Percent Growth,SNB-19; [9],92%
same,GI50,HCC-2998,> 100 µM
same,CC50,HCC-2998; read-out: LC50,> 100 µM
same,TGI,T-47D; 48 h,>1.00E−4 Molar
same,Percent Growth,T-47D; [5],13%
same,Percent Growth,T-47D; [6],16%
same,Percent Growth,T-47D; [7],73%
same,Percent Growth,T-47D; [8],89%
same,Percent Growth,T-47D; [9],91%
same,GI50,MALME-3M,10.3 µM
same,CC50,MALME-3M; read-out: LC50,> 100 µM
same,TGI,UO-31 [3]; 48 h,2.95E−5 Molar
same,Percent Growth,UO-31 [3]; [5],−69%
same,Percent Growth,UO-31 [3]; [6],61%
same,Percent Growth,UO-31 [3]; [7],82%
same,Percent Growth,UO-31 [3]; [8],87%
same,Percent Growth,UO-31 [3]; [9],87%
same,Percent Growth,HOP-92; [5],−61%
same,Percent Growth,HOP-92; [6],−32%
same,Percent Growth,HOP-92; [7],12%
same,Percent Growth,HOP-92; [8],−1%
same,Percent Growth,HOP-92; [9],4%
same,GI50,NCI-H226,> 100 µM
same,CC50,NCI-H226; read-out: LC50,> 100 µM
same,GI50,TK-10,12.4 µM
same,CC50,TK-10; read-out: LC50,> 100 µM
same,GI50,RXF 393,2.01 µM
same,CC50,RXF 393; read-out: LC50,19.5 µM
same,TGI,UACC-62 [4]; 48 h,>1.00E−4 Molar
same,Percent Growth,UACC-62 [4]; [5],60%
same,Percent Growth,UACC-62 [4]; [6],82%
same,Percent Growth,UACC-62 [4]; [7],97%
same,Percent Growth,UACC-62 [4]; [8],102%
same,Percent Growth,UACC-62 [4]; [9],100%
same,GI50,MCF7,3.42 µM
same,CC50,MCF7; read-out: LC50,> 100 µM
